The values below come from US10590440B2, “Process for producing a fermentation product from a lignocellulose-containing material” (CysBio ApS, priority 2014, dated 2020).

Holding throughout (type): cell-based, Escherichia coli
Assay [1] deals with E. coli BL21(DE3)pLysS carrying SULT1A1. Description: Cell density of E. coli in media with ferulic acid, strain carrying SULT1A1 Homo sapiens (Example 4). To be noted: after 17 h at 37° C., inoculated at OD600 0.002. The text has this:
SULT1A1 from Homo sapiens (SEQ ID NO: 2) mentioned in example 1 was cloned into the plasmid vector pET-28a(+) (Novagen, Life Technologies) as follows: The gene encoding the SULT1A1 was codon optimized for expression in E. coli by GeneArt (LifeTechnologies) and synthesized such that the start codon is an Ncol restriction site. The stop codon is immediately followed by a SalI site. The Ncol and SalI fragment of this DNA piece was cloned into the pET-28a(+) digested with Ncol and SalI using T4 DNA ligase. The resulting plasmid was transformed into E. coli BL21(DE3)pLysS (Life Technologies) selecting for resistance to […] kanamycin.
(§1) The two strains BL21(DE3)pLysS and the strain carrying SULT1A1 were grown in M9 minimal media with 0.2% glucose, appropriate antibiotics for maintenance of the plasmids, and 0.1 mM IPTG for induction of expression of the sulfotransferase. We added ferulic acid to final concentration of either 2.5 mM or 5 mM (ferulic acid was dissolved in ethanol, which reached a final concentration of 2% in the media). Ferulic acid is a growth inhibitory compound found in lignocellulotic biomass hydrolysate. Cells were inoculated into the medium to an optical density at 600 nm (OD600) of 0.002 in a 1 cm light path. […] Presence of an aryl sulfotransferase removes the inhibition caused by ferulic acid.

Another assay relates to E. coli BL21(DE3)pLysS. Kind of assay: Cell density of E. coli in media with ferulic acid, strain without SULT1A1 (Example 4). To be noted: after 17 h at 37° C., inoculated at OD600 0.002. The procedure:
as §1

The test system of another assay is E. coli MG1655. Description: Toxicity of unsulfated or sulfated product: growth rate of E. coli MG1655 (Example 3, FIG. 5). The note with it: M9 0.2% glucose, pH 7, 37° C.; pHCA 10-40 mM, zosteric acid 20 or 40 mM. The text has this: All media preparations had been adjusted to pH 7. […] Filled squares represent growth rates in media with pHCA.

On to `COc1cc(/C=C/C(=O)O)ccc1O` [ferulic acid], for which the “Optical density at 600 nm” value in assay [1] (2.5 mM ferulic acid) was found to be 1.410; in assay [1] (5 mM ferulic acid), 1.340; in the assay with E. coli BL21(DE3)pLysS (2.5 mM ferulic acid) it was 0.680; in the assay on E. coli BL21(DE3)pLysS (5 mM ferulic acid), 0.370.

Consider `O=C(O)/C=C/c1ccc(O)cc1` [pHCA, p-coumaric acid], for which the “Toxicity to the cells (growth rates in exponential growth phase)” value in the assay with E. coli MG1655 is recorded as “toxic to the cells”.

On to `O=C(O)/C=C/c1ccc(OS(=O)(=O)O)cc1` [zosteric acid], for which, in the assay with E. coli MG1655, the “Toxicity to the cells (growth rates in exponential growth phase)” value is “much less so”.
